Read-outs that look alike come from different tables or passages of the source.
Legend:
229E = 229E MRC5 CPE assay (cytopathic experiment); format: cell-based, coronavirus 229E (HCoV-229E)
Method: (§1) Cells were seeded into microplates at a certain density and cultured overnight in a incubator at 5% CO2, 37° C. The next day, double-diluted compound and virus were added. It was set up a cell control group (cells without treatment with a compound or virus infection), a virus control group (cells infected with virus, no compound treatment) and a culture medium control group (medium only). Cells were cultured in the incubator for 3 days (229E) or 7 days (OC43). Cytotoxicity experiments were performed under the same conditions as antiviral experiments, but without virus infection. Cell viability was tested using a cell viability assay kit Cell Titer Glo (Promega).
(§2) The antiviral activity and cytotoxicity of the compounds were expressed by the inhibition rate (%) and cell viability (%) of the compounds against virus-induced cytopathic effects at different concentrations, respectively. Nonlinear fitting analysis on the inhibition rate and cell viability of the compounds were carried out with the GraphPad Prism, and the half effective concentration (EC50), the […] effective concentration (EC90), the half cytotoxic concentration (CC50) and the 90% cytotoxic concentration of the compound […] values were calculated.

OC43 = OC43 Huh7 CPE assay (cytopathic experiment); format: cell-based, coronavirus OC43 (HCoV-OC43); conditions: for EC50: read-out: OC43 Huh7 CPE assay (μM) EC50; for EC90: read-out: OC43 Huh7 CPE assay (μM) EC90
Method: as §1, §2

[1] = Huh7 cells, OC43 virus, 7 days, Cell Titer Glo
[2] = Human coronavirus 229E, MRC5, 72 h; read-out: 229E MRC5 CPE assay (μM) EC50
[3] = Human coronavirus 229E, MRC5, 72 h; read-out: 229E MRC5 CPE assay (μM) EC90
[4] = Betacoronavirus 1, OC43, Huh-7, 168 h
[5] = Human coronavirus 229E, MRC5, 72 h, read-out: 229E MRC5 CPE assay (μM) EC50
[6] = Human coronavirus 229E, MRC5, 72 h, read-out: 229E MRC5 CPE assay (μM) EC90
[7] = Betacoronavirus 1, Huh-7, 168 h, Huh7 cells, OC43 virus, 7 days, Cell Titer Glo

Row | Compound | EC50 (OC43; [4]) [µM] | EC90 (OC43; [4]) [µM] | EC50 (229E; [5]) [µM] | EC90 (229E; [6]) [µM] | also measured
1 | CCCC(CCC)C(=O)OC(C)O[P@]1(=O)OC[C@H]2O[C@@](C#N)(c3ccc4c(N)ncnn34)[C@H](O)[C@@H]2O1 (stereo partly shown) [Compound 142] | – | – | – | – | EC50 (229E; read-out: 229E MRC5 CPE assay (μM) EC50; MRC5 cells, 229E virus, 3 days, Cell Titer Glo): > 0.5 µM; EC90 (229E; read-out: 229E MRC5 CPE assay (μM) EC90; MRC5 cells, 229E virus, 3 days, Cell Titer Glo): > 0.5 µM; EC50 (OC43; [1]): > 0.5 µM; EC90 (OC43; [1]): > 0.5 µM
2 | CC(C)(C)C(=O)OCO[P@](=O)(OC[C@H]1O[C@@](C#N)(c2ccc3c(N)ncnn23)[C@H](O)[C@@H]1O)Oc1ccccc1 [Compound 215] | > 0.5 | > 0.5 | – | – | EC50 (229E; [2]): > 0.5 µM; EC90 (229E; [3]): > 0.5 µM
3 | CCCC(CCC)C(=O)OCO[P@@](=O)(NC(C)(C)C(=O)OC(C)C)OC[C@H]1O[C@@](C#N)(c2ccc3c(N)ncnn23)[C@H](O)[C@@H]1O [Compound 123] | 0.1 to 0.5 | > 0.5 | 0.1 to 0.5 | 0.1 to 0.5 | –
4 | CC(C)(C)C(=O)OCO[P@@](=O)(OC[C@H]1O[C@@](C#N)(c2ccc3c(N)ncnn23)[C@H](O)[C@@H]1O)Oc1cccc2ccccc12 [Compound 216] | > 0.5 | > 0.5 | – | – | EC50 (229E; [2]): > 0.5 µM; EC90 (229E; [3]): > 0.5 µM
5 | CCCC(CCC)C(=O)OCO[P@](=O)(N[C@@H](Cc1ccccc1)C(=O)OCC)OC[C@H]1O[C@@](C#N)(c2ccc3c(N)ncnn23)[C@H](O)[C@@H]1O [Compound 137] | < 0.1 | < 0.1 | < 0.1 | 0.1 to 0.5 | –
6 | CCC(CC)COC(=O)[C@H](C)N[P@@](=O)(OCOC(=O)C(C)(C)C)OC[C@H]1O[C@@](C#N)(c2ccc3c(N)ncnn23)[C@H](O)[C@@H]1O [Compound 192] | 0.1 to 0.5 | > 0.5 | 0.1 to 0.5 | > 0.5 | –
7 | CCCCOC(=O)[C@H](Cc1ccccc1)N[P@@](=O)(OCOC(=O)C(CCC)CCC)OC[C@H]1O[C@@](C#N)(c2ccc3c(N)ncnn23)[C@H](O)[C@@H]1O [Compound 138] | < 0.1 | < 0.1 | < 0.1 | 0.1 to 0.5 | –
8 | CC(C)OC(=O)C(C)(C)NP(=O)(OCOC(=O)c1cccnc1)OC[C@H]1O[C@@](C#N)(c2ccc3c(N)ncnn23)[C@H](O)[C@@H]1O (stereo partly shown) [Compound 177] | > 0.5 | > 0.5 | > 0.5 | > 0.5 | –
9 | N#C[C@@]1(c2ccc3c(N)ncnn23)O[C@@H]2CO[P@@](=O)(OCOC(=O)C3CCCC3)O[C@H]2[C@H]1O [Compound 262] | > 0.5 | > 0.5 | 0.1 to 0.5 | > 0.5 | –
10 | N#C[C@@]1(c2ccc3c(N)ncnn23)OC2CO[P@@](=O)(OCOC(=O)c3cccnc3)O[C@H]2[C@H]1O (stereo partly shown) [Compound 180] | > 0.5 | > 0.5 | > 0.5 | > 0.5 | –
11 | CCCC(CCC)C(=O)OCO[P@](=O)(N[C@H](C)C(=O)OC(C)C)OC[C@H]1O[C@@](C#N)(c2ccc3c(N)ncnn23)[C@H](O)[C@@H]1O [Compound 036] | 0.1 to 0.5 | > 0.5 | 0.1 to 0.5 | 0.1 to 0.5 | –
12 | CC(C)(C)C(=O)O[C@@H]1[C@@H]2O[P@@](=O)(O)OC[C@H]2O[C@@]1(C#N)c1ccc2c(N)ncnn12 [Compound 199] | > 0.5 | > 0.5 | > 0.5 | > 0.5 | –
13 | N#C[C@@]1(c2ccc3c(N)ncnn23)O[C@@H]2CO[P@@](=O)(OCOC(=O)Oc3ccccc3)O[C@H]2[C@H]1O [Compound 229] | > 0.5 | > 0.5 | > 0.5 | > 0.5 | –
14 | CCO[P@@]1(=O)OC[C@H]2O[C@@](C#N)(c3ccc4c(N)ncnn34)[C@H](O)[C@@H]2O1 [Compound 230] | – | – | – | – | EC50 (229E; [2]): > 0.5 µM; EC90 (229E; [3]): > 0.5 µM; EC50 (OC43; [7]): > 0.5 µM; EC90 (OC43; [7]): > 0.5 µM
15 | CCC(CC)COC(=O)[C@H](C)NP(=O)(OCC(=O)OC(C)C)OC[C@H]1O[C@@](C#N)(c2ccc3c(N)ncnn23)[C@H](O)[C@@H]1O (stereo partly shown) [Compound 103] | > 0.5 | > 0.5 | > 0.5 | > 0.5 | –
16 | N#C[C@@]1(c2ccc3c(N)ncnn23)OC2CO[P@](=O)(OCOC(=O)c3cccnc3)O[C@H]2[C@H]1O (stereo partly shown) [Compound 179] | > 0.5 | > 0.5 | > 0.5 | > 0.5 | –
17 | CC(C)(C)C(=O)SCCO[P@@]1(=O)OC[C@H]2O[C@@](C#N)(c3ccc4c(N)ncnn34)[C@H](O)[C@@H]2O1 [Compound 236] | < 0.1 | < 0.1 | < 0.1 | < 0.1 | –
18 | CCC(CC)COC(=O)[C@H](C)N[P@@](=O)(OC[C@H]1O[C@@](C#N)(c2ccc3c(N)ncnn23)[C@H](O)[C@@H]1O)Oc1ccc(C[C@H](NC(=O)OCc2ccccc2)C(=O)OC2CCCC2)cc1 [Compound 218] | – | – | – | – | EC50 (229E; [2]): > 0.5 µM; EC90 (229E; [3]): > 0.5 µM; EC50 (OC43; [7]): > 0.5 µM; EC90 (OC43; [7]): > 0.5 µM
19 | CCCC(CCC)C(=O)OCO[P@]1(=S)OC[C@H]2O[C@@](C#N)(c3ccc4c(N)ncnn34)[C@H](O)[C@@H]2O1 [Compound 143] | > 0.5 | > 0.5 | – | – | EC50 (229E; [2]): > 0.5 µM; EC90 (229E; [3]): > 0.5 µM
20 | N#C[C@@]1(c2ccc3c(N)ncnn23)O[C@H](COP(=O)(OCOC(=O)CCCc2ccccc2)OCOC(=O)CCCc2ccccc2)[C@@H](O)[C@H]1O [Compound 266] | > 0.5 | > 0.5 | > 0.5 | > 0.5 | –
21 | N#C[C@@]1(c2ccc3c(N)ncnn23)O[C@@H]2COP(=O)(O)O[C@H]2[C@H]1OC(=O)c1cccnc1 [Compound 181] | > 0.5 | > 0.5 | > 0.5 | > 0.5 | –
22 | CCC(CC)COC(=O)[C@H](C)N[P@@]1(=O)OC[C@H]2O[C@@](C#N)(c3ccc4c(N)ncnn34)[C@H](O)[C@@H]2O1 [Compound 140] | > 0.5 | > 0.5 | > 0.5 | > 0.5 | –
23 | CCC(CC)COC(=O)[C@H](C)NP(=O)(OC[C@H]1O[C@@](C#N)(c2ccc3c(N)ncnn23)[C@H](O)[C@@H]1O)ONC(=N)c1ccccc1 (stereo partly shown) [Compound 028] | > 0.5 | > 0.5 | > 0.5 | > 0.5 | –
24 | CC(C)OC(=O)OCO[P@@]1(=O)OC[C@H]2O[C@@](C#N)(c3ccc4c(N)ncnn34)[C@H](O)[C@@H]2O1 [Compound 145] | 0.1 to 0.5 | 0.1 to 0.5 | < 0.1 | 0.1 to 0.5 | –
25 | CCCN(CCC)S(=O)(=O)c1ccc(C(=O)OCOP(=O)(OCOC(=O)c2ccc(S(=O)(=O)N(CCC)CCC)cc2)OC[C@H]2O[C@@](C#N)(c3ccc4c(N)ncnn34)[C@H](O)[C@@H]2O)cc1 [Compound 164] | > 0.5 | > 0.5 | > 0.5 | > 0.5 | –
26 | CC(C)OC(=O)CO[P@@]1(=S)OC[C@H]2O[C@@](C#N)(c3ccc4c(N)ncnn34)[C@H](O)[C@@H]2O1 [Compound 150] | > 0.5 | > 0.5 | – | – | EC50 (229E; [2]): > 0.5 µM; EC90 (229E; [3]): > 0.5 µM
27 | CCCC(CCC)C(=O)OCO[P@](=O)(N[C@@H](C)C(=O)OCC(CC)CC)OC[C@H]1O[C@@](C#N)(c2ccc3c(N)ncnn23)[C@H](O)[C@@H]1O [Compound 070] | 0.1 to 0.5 | > 0.5 | 0.1 to 0.5 | 0.1 to 0.5 | –
28 | CCCC(CCC)C(=O)OCO[P@@](=O)(OC[C@H]1O[C@@](C#N)(c2ccc3c(N)ncnn23)[C@H](O)[C@@H]1O)Oc1ccccc1 [Compound 222] | > 0.5 | > 0.5 | – | – | EC50 (229E; [2]): 0.1 to 0.5 µM; EC90 (229E; [3]): > 0.5 µM

Reference: patent publication US20240252527A9, “NUCLEOSIDE DRUGS FOR THE TREATMENT OR PREVENTION OF CORONAVIRUS INFECTION AND THEIR USES” (Miracure Biotechnology Limited, priority 2022, published 2024)
